pIC50: −log10 of the molar value.

In this assay the target is T1, TGF-beta receptor type-1 (Homo sapiens, UniProt P36897).
T1 sequence (P36897 whole entry): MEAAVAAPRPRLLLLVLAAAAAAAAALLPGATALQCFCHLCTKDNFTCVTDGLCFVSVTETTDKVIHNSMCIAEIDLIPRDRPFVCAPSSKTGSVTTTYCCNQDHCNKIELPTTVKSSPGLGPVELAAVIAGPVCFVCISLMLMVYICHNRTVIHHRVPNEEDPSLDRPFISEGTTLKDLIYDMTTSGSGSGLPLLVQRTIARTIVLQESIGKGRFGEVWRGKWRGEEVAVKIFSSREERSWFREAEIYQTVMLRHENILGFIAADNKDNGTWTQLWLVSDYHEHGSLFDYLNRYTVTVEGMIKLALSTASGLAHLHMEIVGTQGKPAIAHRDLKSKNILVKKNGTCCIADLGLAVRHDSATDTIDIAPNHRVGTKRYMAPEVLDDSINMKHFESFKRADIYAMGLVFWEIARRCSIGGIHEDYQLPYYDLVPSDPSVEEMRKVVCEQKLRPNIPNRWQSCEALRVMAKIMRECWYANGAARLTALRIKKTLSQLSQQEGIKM
As to the kind of experiment: In vitro Assay. As to the method:
The enzymatic activity of compounds of the present invention was monitored measuring the formation of ADP using the ADP-GLO Kinases assay. Following the incubation of the purified enzyme, a substrate and ATP, the produced ADP was converted into ATP, which in turn was converted into light by Ultra-Glo Luciferase. The luminescent signal positively correlated with ADP amount and kinase activity.
As to `Cc1nnc(-c2cc(Cl)ccc2F)cc1Nc1ccnc(NC(=O)CCN2CCN(CCS(C)(=O)=O)CC2)c1` [US20240018122, Example 83], the pIC50 is above 9.00.

`Cc1nnc(-c2cc(Cl)ccc2F)cc1Nc1ccnc(NC(=O)CCN2CC[N+](C)(C)CC2)c1` [US20240018122, Example 110] showed a pIC50 above 9.00.

Regarding `Cc1nnc(-c2cc(Cl)ccc2F)cc1Nc1ccnc(NC(=O)C2CC2)c1` [US20240018122, Example 15], the negative logarithm of the IC50 (pIC50) was above 9.00. The compound `Cc1nnc(-c2cc(Cl)ccc2F)cc1Nc1ccnc(NC(=O)CCN2CCNC(C(=O)O)C2)c1` (configuration not stated) [US20240018122, Example 92] showed a pIC50 above 9.00. The compound `CN1CCN(CCN(C)C(=O)c2cc3c(Nc4cnnc(-c5cc(Cl)ccc5F)c4)ccnc3[nH]2)CC1` [US20240018122, Example 40] had a negative-log IC50 (pIC50) above 9.00. For `OCCC(CCO)N1CCN(CCOc2ccc3c(Nc4cnnc(-c5cc(Cl)ccc5F)c4)ccnc3c2)CC1` [US20240018122, Example 86] the value was above 9.00. For `Cc1nnc(-c2cc(Cl)ccc2F)cc1Nc1ccnc(NC(=O)NCC2CCN(C)CC2)c1` [US20240018122, Example 142], the negative logarithm of the IC50 (pIC50) was above 9.00.

The record behind these values is BindingDB's records for patent US20240018122 (Chiesi Farmaceutici, 2024).
